These results are taken from US20100197587A1, “USE OF A PEPTIDE AS A THERAPEUTIC AGENT” (priority 2007, published 2010).

No end group written: not given here.

Experiment [1] deals with HIV-1IIIB. The experiment is described as follows: HIV-1 antiviral assay in CEM-SS cells (MTS readout). The note with it: positive controls.
The test system of experiment [2] is HCMV strain AD169. Nature of the experiment: HCMV plaque formation assay in MRC-5 cells. The settings on record: for inhibition of HCMV plaque formation as compared to the virus control experiment: 10 micrograms per ml, 7-10 days.
The subject of experiment [3] is RAW 264.7 (Mouse leukaemic monocyte macrophage cell line) cells. Nature of the experiment: Phagocytosis assay (Fluorescein-labeled Escherichia coli, flow cytometry). Format: cell-based. The note with it: 10 micrograms per ml; RAW 264.7, Fluorescein-labeled E. coli.
The subject of experiment [4] is spleen cells. Nature of the experiment: Th1/Th2 cytokine profiling assay (Ovalbumin-restimulated spleen cells). The note with it: 10 micrograms per ml; Ovalbumin restimulation, 72 hours, supernatant.
Excerpt: The Balb/c mice (originated in 1923, it is a popular strain and is used in many different research disciplines. Also classified as an inbred from the production of 20 or more successive brother-sister matings, the Balb/c mouse is albino and small in size) were immunized on Days 1, 15, and 29 with Ovalbumin (Ovalbumin is the main protein found in egg white, commonly used to stimulate an immunological reaction in test animals) in PBS (5 micrograms/injection). On day 50, spleens of the mice were harvested (3 weeks after last boost with Ovalbumin). […] Thereafter, additional Ovalbumin was added to the cells at 10 micrograms/ml for in vitro restimulation of the cells. 72 hours later, cell supernatants were harvested and assayed using the Becton Dickinson Mouse Th1/Th2 Cytokine CBA Kit. This kit can be used to measure Interleukin-2 (IL-2), Interleukin-4 (IL-4), Interleukin-5 (IL-5), Interferon-γ (IFN-γ), and Tumor Necrosis Factor-α (TNF-α) protein levels in a single sample.
In experiment [5] the test system is hepatitis B virus (HBV) ayw strain. Nature of the experiment: HBV assay in HepG2-2.2.15 cells (secreted HBV DNA by TaqMan PCR). Format: cell-based. The note with it: 10 micrograms per ml; HepG2-2.2.15, six days, HBV DNA in supernatant.

Consider `Cc1cn([C@H]2C[C@H](N=[N+]=[N-])[C@@H](CO)O2)c(=O)[nH]c1=O` [AZT], for which the “antiviral activity of positive control compounds (HIV-1)” value in experiment [1] is reported as “expected levels of antiviral activity”.
As for `Nc1nc(O)c2ncn(COC(CO)CO)c2n1` [Ganciclovir, reference compound], in experiment [2] (positive control, HCMV AD169), the “antiviral activity of positive control compound (HCMV)” value is given as “expected levels of antiviral activity”.
With `CC(C)(C)NC(=O)[C@@H]1CN(Cc2cccnc2)CCN1C[C@@H](O)C[C@@H](Cc1ccccc1)C(=O)N[C@H]1c2ccccc2C[C@H]1O` [indinavir], the “antiviral activity of positive control compounds (HIV-1)” value in experiment [1] was “expected levels of antiviral activity”.
As to “His-Ala-Asp-Gly-Ser-Phe-Ser-Asp-Glu-Met-Asn-Thr-Ile-Leu-Asp-Asn-Leu-Ala-Ala-Arg-Asp-Phe-Ile-Asn-Trp-Leu-Ile-Gln-Thr-Lys-Ile-Thr-Asp-Arg-OH (HADGSFSDEMNTILDNLAARDFINWLIQTKITDR-OH) [Peptide 1]”, in experiment [3], the “increase of the phagocytic activity of murine macrophages” value is given as 22.9%. In experiment [2], the “inhibition of HCMV plaque formation as compared to the virus control experiment” value was “did not inhibit”. In addition, in experiment [4], the “IFNγ spleen cells; TH1 response (% of control)” value is given as 132.7 % of control, the “IL-2 spleen cells (% of control)” value is reported as 0.0 % of control, the “IL-4 spleen cells; TH2 response (% of control)” value is reported as 0.0 % of control and the “IL-5 spleen cells; TH2 response (% of control)” value is recorded as 48.2 % of control. Besides, the “TNF-a spleen cells; TH1 response (% of control)” value in experiment [4] is reported as 102.2 % of control. The “inhibition of HBV replication as compared to the virus control infection” value in experiment [5] worked out at 59.7%.
On to “His-Ala-Asp-Gly-Ser-Phe-Ser-Asp-Glu-Met-Asn-Thr-Ile-Leu-Asp-Asn-Leu-Ala-Ala-Arg-Asp-Phe-Ile-Asn-Trp-Leu-Ile-Gln-Thr-Lys-Ile-Thr-Asp-OH [Peptide 2]”, for which, in experiment [3], the “inhibitory effects on the phagocytic activity of murine macrophages” value is given as “no inhibitory effects”. In experiment [2], the “inhibition of HCMV plaque formation as compared to the virus control experiment” value worked out at 18.8%. In experiment [4], the “IFNγ spleen cells; TH1 response (% of control)” value is 132.7 % of control, the “IL-2 spleen cells (% of control)” value was 183.3 % of control, the “IL-4 spleen cells; TH2 response (% of control)” value is recorded as 104.4 % of control and the “IL-5 spleen cells; TH2 response (% of control)” value is listed as 108.4 % of control. In experiment [4], the “TNF-a spleen cells; TH1 response (% of control)” value is 143.7 % of control. Besides, the “inhibition of HBV replication as compared to the virus control infection” value in experiment [5] was 59.2%.
